Data reported in patent US11484032B2, “Compositions for inhibition of insect sensing” (Vanderbilt University, priority 2011, dated 2022).

The compounds below were run against T1, AgORco+AgOR48 (Anopheles gambiae, UniProt Q7QCC7) (assay: Ca2+ imaging, HEK cells expressing AgORco+AgOR48). Conditions: Orco + 48, agonist; relative to VUAA1.
T1 construct: expressed in transfected cells
T1 sequence (Q7QCC7 1-478): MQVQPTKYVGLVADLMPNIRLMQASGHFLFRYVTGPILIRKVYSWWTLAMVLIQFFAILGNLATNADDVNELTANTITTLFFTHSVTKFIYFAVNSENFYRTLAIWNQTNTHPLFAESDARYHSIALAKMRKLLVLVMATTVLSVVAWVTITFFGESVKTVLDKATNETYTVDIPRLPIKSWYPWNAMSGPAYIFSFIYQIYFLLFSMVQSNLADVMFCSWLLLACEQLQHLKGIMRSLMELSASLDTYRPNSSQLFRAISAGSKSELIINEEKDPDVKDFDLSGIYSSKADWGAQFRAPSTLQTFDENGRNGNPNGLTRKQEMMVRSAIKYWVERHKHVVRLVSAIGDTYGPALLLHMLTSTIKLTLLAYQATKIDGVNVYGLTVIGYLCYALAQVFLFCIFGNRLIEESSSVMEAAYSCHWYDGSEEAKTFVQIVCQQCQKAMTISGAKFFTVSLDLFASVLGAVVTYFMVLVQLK
Format: cell-based
Excerpt: (§1) For transient transfections, ORs were cloned into pCl (Promega) and transfected into Flp-In™ T-REx™293 cell lines (Invitrogen) with Fu GENE6 (Roche). For the creation of stable cell lines, a cell culture expression vector capable of expressing Orco in conjunction with a conventional OR, pcDNA5/FRT/TO (Invitrogen) was modified to create two individual expression cassettes each under the control of a separate CMV/Tet02 promoter and a BGH poly-adenylation signal. Cells (as above) were transfected with the modified pcDNA5 plasmid along with POG44 (a Flp recombinase expression plasmid) to facilitate site-specific recombination. Stable cell lines were selected using Hygromycin B (Invitrogen). Cells were maintained in DMEM (Invitrogen) supplemented with 10% Tetracycline-free FBS (HyClone) and 15 ng/ml Blasticidin. For fluorometric Ca2+ measurements, stable lines expressing ORs of interest were seeded at 20,000 cells/well in black wall, poly-lysine coated 384-well cell culture plates (Greiner) and treated with […] tetracycline (Sigma) overnight to induce OR expression. Cells were dye-loaded with 1.8 uM Fluo-4 AM (Molecular Probes), 2.5 mM Probenecid (Molecular Probes) in assay buffer (20 mM HEPES, IX HBSS) for 45 minutes at 37° C. in 5% CO2 prior to each assay. Ca^2+ mobilization was assayed in an FDSS6000 (Hamamatsu). Baseline readings were taken for 20 s before automated addition of compound previously diluted in DMSO and assay buffer. Ratios were described as Maximum/Minimum response and each response was normalized to the maximum responder.
The ability of VUAA1 and its analogs to agonize representative ORco proteins from dipteran (Anopheles gambiae, AgORco), lepidopteran (Heliothis virescens, HvORco) and hymenopteran (Harpegnathos saltator, HsORco) orders was tested. […] Furthermore, the hierarchy of VUAA series potency was the same, irrespective of whether AgORco was co-expressed with AgOR65 or AgOR48 tuning ORs (FIG. 45). Without wishing to be bound by a particular theory, odorant ligands are thought to activate the complex via interaction with the tuning ORx and thereby affect ORco/ORx channel properties. […] These findings indicate VUAA-class OR co-modulators are viable compounds for further development as broad-spectrum insect control strategies, and VUAA4 can provide an advance in the pharmacological profile of VUAA-based compounds.

SMILES	Orco + 48 Agonist % value Of VUAA1
C=CCn1c(SCC(=O)Nc2ccc(C(C)C)cc2)nnc1-c1ccncc1	<VUAA1
C=Cc1ccc(NC(=O)CSc2nnc(-c3ccncc3)n2C2CC2)cc1	<VUAA1

Same assay, conditions: Orco + 48, agonist; stated in words relative to VUAA1

SMILES	Orco + 48 Agonist EC50 (relative to VUAA1)
C=CCn1c(SCC(=O)Nc2ccc(C(C)C)cc2)nnc1-c1ccncc1	<VUAA1
C=Cc1ccc(NC(=O)CSc2nnc(-c3ccncc3)n2C2CC2)cc1	<VUAA1

Same assay, conditions: Orco + 48; read-out: Orco + 48 Agonist EC50

EC50 [µM]	SMILES
2.2	CCn1c(SCCC(=O)Nc2ccc(C(C)C)cc2)nnc1-c1cccnc1

The compounds below were run against T2, AgORco+AgOR10 (Anopheles gambiae, UniProt Q7QCC7) (assay: Fluo-4 Ca2+ imaging, HEK293 cells expressing Orco+AgOR10). Conditions: 10 + Orco; potentiator mode.
T2 construct: expressed in transfected cells
T2 sequence (Q7QCC7 1-478): T1 sequence (Q7QCC7 1-478)
Format: cell-based
Set-up: Orco 10 + Orco Angatonist % Reduction / Orco 10 + Orco Agonist % of control: concentration or dose not given beside the values
Excerpt: as §1
As part of an ongoing, cell based calcium imaging screen for novel small-molecule modulators of AgORs that might disrupt olfactory-driven mosquito behaviors (Rinker et al manuscript in preparation), the inventors identified a number of compounds that activated AgOR10+AgORco-expressing human embryonic kidney (HEK293) cells. One of these compounds, (FIG. 3 A) denoted here as VUAA1, elicited activity consistent with allosteric agonism and was pursued for its novel properties. The identity of VUAA1 was verified using high-resolution mass spectrometry (HRMS) as well as ^1H and ^13C NMR. […] As AgORco was the common element among these functional responses, the inventors postulated that VUAA1 was a potential AgORco agonist.

SMILES	Orco 10 + Orco Potentiator % increase [%]
CCn1c(SCCC(=O)O)nnc1-c1cccnc1	15.74
CCc1cccc(CC)c1NC(=O)CSc1nnc(C(C)C)n1CC	13.90
CCCn1c(SCC(=O)NCCc2ccccc2)nnc1-c1cccnc1	12.58

Same assay, conditions: Orco 10 + Orco, antagonist mode

SMILES	Orco 10 + Orco Angatonist % Reduction [%]
Cc1ccc(-n2c(SCC(=O)NCc3ccc4c(c3)OCO4)nnc2-c2cccnc2)c(C)c1	31.14
CCn1c(COc2cccc(OC)c2)nnc1SCC(=O)Nc1cc(OC)ccc1OC	30.79
CCn1c(SCC(=O)N2c3ccccc3CCc3ccccc32)nnc1-c1ccco1	13.40
CCOC(=O)c1c(NC(=O)CSc2nnc(-c3cccnc3)n2Cc2ccco2)sc(C)c1C	30.44
CCc1ccc(NC(=O)CSc2nnc(-c3cccs3)n2CC)cc1	32.93
CCOc1ccccc1-n1c(SCC(=O)N2CCCc3ccccc32)nnc1-c1cccnc1	29.87
CCn1c(CNC(=O)COc2ccc(C(C)C)cc2)nnc1SCC(=O)Nc1ccccc1	13.06
CCOC(=O)CN(C(=O)CSc1nnc(CNc2ccc(C)cc2C)n1CC)c1ccccc1	57.34
O=C(CSc1nnc(-c2cccnc2)n1-c1ccc(SC(F)F)cc1)N1CCCc2ccccc21	24.77
CCn1c(SCC(=O)Nc2ccc(OCc3ccccc3)cc2)nnc1-c1ccco1	28.44
O=C(CSc1nnc(-c2cccnc2)n1Cc1ccco1)N1c2ccccc2Sc2ccccc21 [drawing 497]	53.70
CCn1c(CNC(=O)COc2ccc(C(C)C)cc2)nnc1SCC(=O)Nc1cc(F)ccc1C	31.15
c1ccc(CSc2nnc(-c3cccnc3)n2Cc2ccccc2)cc1	16.73
CCn1c(COc2ccc(OC)cc2)nnc1SCC(=O)Nc1cc(OC)ccc1OC	7.54
CCn1c(SCC(=O)Nc2ccccc2C(=O)OC)nnc1-c1cccc(C)c1	16.03
CCn1c(COc2ccc(C)cc2)nnc1SCC(=O)Nc1cc(OC)ccc1OC	59.64
Cc1ccc(Nc2nc(CSc3nnc(-c4cccnc4)n3-c3ccccc3C)cs2)cc1	52.47
COc1cc(Cl)c(C)cc1CSc1nnc(-c2cccnc2)n1Cc1ccco1	28.40
CCN(CC)S(=O)(=O)c1ccc(-c2nnc(SCC(=O)N3c4ccccc4CC3C)n2CC)cc1 (centres unmarked)	31.53
CCn1c(COc2ccccc2)nnc1SCC(=O)Nc1cc(OC)ccc1OC	38.62
C=CCn1c(SCc2cccc3ccccc23)nnc1-c1cccnc1	13.43
CCOc1ccc(-n2c(SCc3cc(=O)oc4cc(C)ccc34)nnc2-c2cccnc2)cc1	12.48
Cc1ccccc1-n1c(SCc2csc(Nc3ccccc3)n2)nnc1-c1cccnc1	56.98
Fc1ccc(CSc2nnc(-c3cccnc3)n2Cc2ccco2)cc1	16.64

SMILES	Orco 10 + Orco Angatonist % Reduction [%]
CCn1c(CNC(=O)COc2ccc(C(C)C)cc2)nnc1SCC(=O)Nc1ccccc1C(C)C	44.74
O=C(CSc1nnc(-c2cccnc2)n1Cc1ccco1)c1ccc(Br)cc1	7.93
CC(C)c1ccccc1-n1c(SCC(=O)N2CCN(c3ccccc3)CC2)nnc1-c1cccnc1	42.29
CCn1c(CNC(=O)c2ccco2)nnc1SCC(=O)Nc1cc(C(F)(F)F)ccc1Cl	15.97
COc1cc(Cl)c(C)cc1NC(=O)CSc1nnc(-c2cccnc2)n1Cc1ccco1	25.31
CCn1c(CNc2ccc(F)cc2)nnc1SCC(=O)N1CCCc2ccccc21	18.47
CCn1c(SCC(=O)Nc2ccc3c(c2)OCCO3)nnc1-c1c[nH]c2ccccc12	17.90
Cc1ccc(-n2c(SCC(=O)N3CCCc4ccccc43)nnc2-c2cccnc2)c(C)c1	26.04
N#Cc1ccc(CSc2nnc(-c3cccnc3)n2-c2ccccc2)cc1	20.08
CCOc1ccc(-n2c(SCc3cc(=O)oc4cc(C)c(C(C)C)cc34)nnc2-c2cccnc2)cc1	48.28
CCn1c(SCC(=O)N2c3ccccc3CCc3ccccc32)nnc1-c1ccc(OC)cc1	41.48
O=C(CSc1nnc(-c2cccnc2)n1Cc1ccco1)N1c2ccccc2Sc2ccccc21 [drawing 490]	46.34
CCn1c(CNC(=O)COc2ccc(C(C)C)cc2)nnc1SCC(=O)Nc1ccccc1F	11.35
Cc1ccc(Nc2nc(CSc3nnc(-c4cccnc4)n3-c3ccccc3F)cs2)cc1	47.91
CCOC(=O)c1cccc(NC(=O)CSc2nnc(CNc3ccc(C)cc3)n2CC)c1	62.21
CC(C)c1ccccc1-n1c(SCc2cc(=O)oc3ccc4ccccc4c23)nnc1-c1cccnc1	26.15
Clc1ccc(CSc2nnc(-c3cccnc3)n2Cc2ccco2)c(Cl)c1	49.50
CCOC(=O)CN(C(=O)CSc1nnc(COc2ccc(OC)cc2)n1CC)c1ccccc1	49.09
Clc1ccccc1CSc1nnc(-c2cccnc2)n1Cc1ccco1	33.76
CCn1c(SCC(=O)Nc2ccc(N(C)C)cc2)nnc1-c1cccc(C)c1	29.54
CCOC(=O)CN(C(=O)CSc1nnc(CNc2ccc(F)cc2)n1CC)c1ccc(F)cc1	8.24
Cc1ccc(-n2c(SCC(=O)NCc3ccco3)nnc2-c2cccnc2)c(C)c1	15.51
CCn1c(SCC(=O)Nc2ccc(OC)cc2)nnc1-c1ccc2[nH]c(C)c(C)c2c1	24.94
CCn1c(COc2cccc(OC)c2)nnc1SCC(=O)Nc1ccccc1C(=O)OC	72.23

Same assay, conditions: Orco 10 + Orco; potentiator mode

SMILES	Orco 10 + Orco Potentiator % increase [%]
Cc1ccccc1-n1c(SC(C)C(N)=O)nnc1-c1cccnc1 (centres unmarked)	16.98
CCn1c(COc2ccc3c(c2)CCCC3)nnc1SCC(=O)Nc1ccc(C(=O)OC)cc1	18.19
CCn1c(SCC(=O)Nc2cc(C)ccc2C)nnc1-c1cnccn1	21.48
O=C(CSc1nnc(-c2cccnc2)n1-c1ccccc1)c1c[nH]c2ccccc12	13.63
C=CCn1c(SCc2nc(N)nc(N(C)C)n2)nnc1-c1cccnc1	17.15
O=C(CSc1nnc(-c2cccnc2)n1-c1ccccc1)NCc1ccc2c(c1)OCO2	16.29
